Like-named read-outs stand apart in the source and are kept apart here.
Columns and labels:
Format in all cases: in vivo
Blatella germanica = experiment: Insecticidal activity against Blatella germanica, topical application to ventral thorax; settings: for insecticidal activity: in vivo
Method: 1 μl of an acetone solution of the test product was applied to the ventral thorax of the insects with 20 insects per dose and concentrations of 2500, 1250, 625 and 312,5 mg/liter. The number of living and dead insects 24 and 48 hours and 6 days after the treatment was determined and the results were reported in Table VI.

Panagrellus silusae = experiment: Nematocidal activity against Panagrellus silusae in aqueous suspension; settings: for mortality at 100 µg/mL / mortality at 1000 µg/mL: Panagrellus, 24 hours; for mortality at 100 µg/mL: 0.1 g/l; for mortality at 1000 µg/mL: 1 g/l; for nematocidal activity: in vivo
Method: (§1) About 2000 nematodes suspended in 0.5 ml of water were placed in a container of about 50 ml and 10 ml of an aqueous suspension of the test compound at a concentration of 1 or 0.1 g/liter were added thereto using 3 tests for each concentration. After homogenization of the aqueous media for 24 hours, a 1 ml sample was taken and the living and dead nematodes were counted with a Peter sheet.

[1] = system: Ditylenchus myceliophagus; experiment: Nematocidal activity against Ditylenchus myceliophagus in aqueous suspension; settings: for mortality at 100 µg/mL / mortality at 1000 µg/mL: Ditylenchus myceliophagus, 24 hours; for mortality at 100 µg/mL: 0.1 g/l; for mortality at 1000 µg/mL: 1.0 g/l; for nematocidal activity: in vivo
Method: as §1

Tetranychus urticae = experiment: Acaricidal activity, adulticide test on infested bean leaves; settings: read-out: % Mortality (adults); for mortality at 10 µg/mL: 10 mg/liter
Method: Bean leaves infested with 25 acarids per leaf and coated with glue about their edge were divided into 2 groups. The first group was sprayed with 2.5 ml of an aqueous solution of the test compound A for each leaf at concentrations of 50, 10 and 1 mg/liter. The second control group was untreated and the number of acarids living 48 hours after the spraying was determined to determine the percent of mortality.

[2] = system: Mamestra brassicae caterpillars; experiment: Insecticidal activity against Mamestra brassicae caterpillars, topical application; settings: 10 μg per caterpillar; for mortality at 0.01 mg: Mamestra brassicae, topical, read-out: percent of mortality
Method: (§2) This test was effected on Mamestra brassicae caterpillars in the last larvae stage with a body of 1.5 to 2.0 cm. 1 μl of an acetone solution of the test compound was applied topically to the dorsal thorax of each caterpillar using 10 caterpillars for each dose studied and the caterpillars were kept at 25°C.

[3] = system: Mamestra oleracea caterpillars; experiment: Insecticidal activity against Mamestra oleracea caterpillars, topical application; settings: for mortality at 0.001 mg / mortality at 0.01 mg: Mamestra, topical; for mortality at 0.001 mg: 1 μg; for mortality at 0.01 mg: 10 μg
[4] = system: Spodoptera exigua caterpillars; experiment: Insecticidal activity against Spodoptera exigua caterpillars, topical application; settings: for mortality at 0.001 mg / mortality at 0.01 mg: Spodoptera exigua, topical; for mortality at 0.001 mg: 1 μg; for mortality at 0.01 mg: 10 μg
Method: as §2
(§3) The procedure of Test A was repeated with Spodoptera expigua and Chilo suppressalis caterpillars with compound A and the results are reported in Table II.

[5] = system: Chilo suppressalis caterpillars; experiment: Insecticidal activity against Chilo suppressalis caterpillars, topical application; settings: for mortality at 0.001 mg / mortality at 0.01 mg: Chilo suppressalis, topical; for mortality at 0.001 mg: 1 μg; for mortality at 0.01 mg: 10 μg
Method: as §2, §3

Sitophilus granarius = experiment: Insecticidal activity against Sitophilus granarius, topical application to ventral thorax; settings: 20°C; for mortality at 0.1 mg: dose 100 (μg); for mortality at 1 mg: dose 1000 (μg)
Method: 0.2 μl of an acetone solution of the test product was applied to the ventral thorax of each insect at concentrations of 5000 and 500 ppm with 50 insects for each test. The insects were held at 20°C and the percent of mortality was determined 24 and 48 hours and 6 days after the treatment.

Drosophila melanogaster = experiment: Insecticidal activity against Drosophila melanogaster, dried film in crystallizer (contact and vapor); settings: for Emax at 50 µg/mL / Emax at 500 µg/mL / Emax at 5000 µg/mL: Drosophila melanogaster, read-out: % Efficacy; for Emax at 50 µg/mL: 50 mg/liter; for Emax at 500 µg/mL: 500 mg/liter; for Emax at 5000 µg/mL: 5000 mg/liter
Method: 2 ml of an acetone solution of the test product at concentrations of 5000, 500 and 50 ppm were placed in the bottom of a crystallizer and were then allowed to dry for 1 hour under a laboratory atmosphere. Three tests were run for each concentration and 25 to 50 drosophiles were placed in the crystallizer together with a carrot ring which acted as nutrient for the insects. The crystallizers were closed with a Petri dish cover and they were stored at 20°C. The number of living and dead insects was determined after 1,2,4 and 24 hours and the results for compound A are reported in Table IV.

Ceratitis capitata = experiment: Insecticidal activity against Ceratitis capitata flies, topical application; settings: for mortality at 100 µg/mL / mortality at 1000 µg/mL: Ceratitis capitata; for mortality at 100 µg/mL: topical; for mortality at 1000 µg/mL: 1000 mg per liter, 1 μl topical
Method: This test was effected topically with acetone solutions of 1000 or 100 mg of compound A per liter and 1 μl of the solution was applied to the dorsal thorax of Ceratitis capitata flies aged 25 days (± 0.5) using 50 insects for each concentration. The number of flies still living and dead was determined after 2 and 24 hours to determine the percent of mortality.

Tetranychus urticae eggs = experiment: Acaricidal activity, ovicide test on egg-infested bean leaves; settings: 216 h, 9 days after treatment
Method: (§4) Bean leaves infested with 10 Tetranychus urticae females per leaf and coated with glue about their periphery were used in this test and the females were left to lay eggs for 24 hours and were then removed from the leaves which were egg infested and divided into 2 groups. The first group was sprayed with 0.5 ml of an aqueous solution of compound A for each leaf at concentrations of 50 or 10 mg per liter and the second group was untreated to act as controls. The number of living eggs 9 days after the treatment was determined and the percent of egg mortality was determined and reported in Table IX.

[6] = system: Tetranychus urticae larvae; experiment: Acaricidal activity, larvicide test on bean leaves; settings: 216 h, 9 days after treatment
Method: as §4
This test was similar to the ovicide test but the readings were effected 9 days after the treatment to allow time for the insects to evolve.

CCOC(=O)Cc1csc(OP(=S)(OCC)OCC)n1 [Compound B, 4-ethoxycarbonylmethyl-2-(diethoxythiophosphoryloxy)-thiazole]
% mortality (Blatella germanica; 625 mg/liter, 24 hr): 100%
% mortality (Blatella germanica; 625 mg/liter, 48 hr): 100%
% mortality (Blatella germanica; 625 mg/liter, 6 days): 100%
% mortality (Blatella germanica; 1250 mg/liter, 24 hr): 100%
% mortality (Blatella germanica; 1250 mg/liter, 48 hr): 100%
% mortality (Blatella germanica; 1250 mg/liter, 6 days): 100%
% mortality (Blatella germanica; 312,5 mg/liter, 24 hr): 90%
% mortality (Blatella germanica; 312,5 mg/liter, 48 hr): 90%
% mortality (Blatella germanica; 312,5 mg/liter, 6 days): 90%
insecticidal activity (Blatella germanica): good insecticidal activity
mortality at 100 µg/mL (Panagrellus silusae): 100%
mortality at 1000 µg/mL (Panagrellus silusae): 100%
nematocidal activity (Panagrellus silusae): good nematocidal activity
mortality at 100 µg/mL [1]: 55.7%
mortality at 1000 µg/mL [1]: 100%
nematocidal activity [1]: good nematocidal activity
mortality at 1 µg/mL (Tetranychus urticae; 1 mg/liter, 48 hours): 20%
mortality at 10 µg/mL (Tetranychus urticae; 48 hours): 96%
mortality at 50 µg/mL (Tetranychus urticae; 48 h): 100%

CCOC(=O)c1csc(OP(=S)(OCC)OCC)n1 [Compound A, 4-ethoxycarbonyl-2-(diethoxythiophosphoryloxy)-thiazole]
insecticidal activity [2]: good insecticidal activity
mortality at 0.01 mg ([2]; 24 h): 100%
mortality at 0.01 mg ([2]; 48 h): 100%
mortality at 0.001 mg ([3]; 24 hr): 40%
mortality at 0.001 mg ([3]; 48 hr): 50%
mortality at 0.01 mg ([3]; 24 hr): 100%
mortality at 0.01 mg ([3]; 48 hr): 100%
insecticidal activity ([3]; in vivo): good insecticidal activity
mortality at 0.001 mg ([4]; 24 hr): 90%
mortality at 0.001 mg ([4]; 48 hr): 90%
mortality at 0.01 mg ([4]; 24 hr): 100%
mortality at 0.01 mg ([4]; 48 hr): 100%
insecticidal activity ([4]; in vivo): good insecticidal activity
mortality at 0.001 mg ([5]; 24 hr): 100%
mortality at 0.001 mg ([5]; 48 hr): 100%
mortality at 0.01 mg ([5]; 24 hr): 100%
mortality at 0.01 mg ([5]; 48 hr): 100%
insecticidal activity ([5]; in vivo): good insecticidal activity
mortality at 0.1 mg (Sitophilus granarius; 144 h, 6 days): 10%
mortality at 1 mg (Sitophilus granarius; 144 h, 6 days): 100%
mortality at 0.1 mg (Sitophilus granarius; 24 hr): 6%
mortality at 0.1 mg (Sitophilus granarius; 48 hr): 6%
mortality at 1 mg (Sitophilus granarius; 24 hr): 100%
mortality at 1 mg (Sitophilus granarius; 48 hr): 100%
Emax at 50 µg/mL (Drosophila melanogaster; 1 hour): 0%
Emax at 50 µg/mL (Drosophila melanogaster; 2 hours): 0%
Emax at 50 µg/mL (Drosophila melanogaster; 4 hours): 0%
Emax at 50 µg/mL (Drosophila melanogaster; 24 hours): 32.8%
Emax at 500 µg/mL (Drosophila melanogaster; 1 hour): 0%
Emax at 500 µg/mL (Drosophila melanogaster; 2 hours): 0%
Emax at 500 µg/mL (Drosophila melanogaster; 4 hours): 0%
Emax at 500 µg/mL (Drosophila melanogaster; 24 hours): 100%
Emax at 5000 µg/mL (Drosophila melanogaster; 1 hour): 0%
Emax at 5000 µg/mL (Drosophila melanogaster; 2 hours): 0%
Emax at 5000 µg/mL (Drosophila melanogaster; 4 hours): 5.9%
Emax at 5000 µg/mL (Drosophila melanogaster; 24 hours): 100%
contact and vapor insecticidal activity (Drosophila melanogaster; in vivo): good contact and vapor insecticidal activity
mortality at 100 µg/mL (Ceratitis capitata; 2 h): 61.2%
mortality at 100 µg/mL (Ceratitis capitata; 24 h): 38.8%
mortality at 1000 µg/mL (Ceratitis capitata; 2 hours): 91.7%
mortality at 1000 µg/mL (Ceratitis capitata; 24 hours): 97.9%
insecticidal activity (Ceratitis capitata; in vivo): good insecticidal activity
% mortality (Blatella germanica; 625 mg/liter, 24 hr): 10.0%
% mortality (Blatella germanica; 625 mg/liter, 48 hr): 10.0%
% mortality (Blatella germanica; 625 mg/liter, 6 days): 15.0%
% mortality (Blatella germanica; 1250 mg/liter, 24 hr): 90.0%
% mortality (Blatella germanica; 1250 mg/liter, 48 hr): 95.0%
% mortality (Blatella germanica; 1250 mg/liter, 6 days): 100%
% mortality (Blatella germanica; 2500 mg/liter, 24 hr): 95.0%
% mortality (Blatella germanica; 2500 mg/liter, 48 hr): 95.0%
% mortality (Blatella germanica; 2500 mg/liter, 6 days): 100%
insecticidal activity (Blatella germanica): good insecticidal activity
mortality at 100 µg/mL (Panagrellus silusae): 86.5%
mortality at 1000 µg/mL (Panagrellus silusae): 100%
nematocidal activity (Panagrellus silusae): good nematocidal activity
mortality at 100 µg/mL [1]: 88.4%
mortality at 1000 µg/mL [1]: 100%
nematocidal activity [1]: good nematocidal activity
mortality at 10 µg/mL (Tetranychus urticae eggs; 10 mg/liter): 93.3%
mortality at 50 µg/mL (Tetranychus urticae eggs; 50 mg/liter): 100%
mortality at 10 µg/mL (Tetranychus urticae; 48 hours): 100%
mortality at 50 µg/mL (Tetranychus urticae; 50 mg/liter, 48 hours): 100%
mortality at 10 µg/mL ([6]; 10 mg/liter): 100%
mortality at 50 µg/mL ([6]; 50 mg/liter): 100%

— US3948925A, “Novel thiazole derivatives” (priority 1973, dated 1976)
